These results are taken from PubChem BioAssay (NCI).

Among the test systems are HL-60(TB) leukemia; OVCAR-3 ovarian; A549 NSCLC; NCI-H23 lung; UACC-257 melanoma; 786-0 renal; SR leukemia; OVCAR-4 ovarian; SK-OV-3 ovarian; A498 renal; UO-31 renal; MCF7 breast; K-562 leukemia; NCI-H226 lung.
Holding throughout (assay): inhibition of tumour cell growth, NCI panel, 48 h

Molecules are shown by their SMILES.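 All cell lines were grown in 96-well plates and treated with compound for 48 hours. TGI denotes the concentration required for complete inhibition of growth.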

As to `CC1CN=C(N(Cc2ccccc2)C(=O)Nc2ccc(Cl)c(Cl)c2)S1` (stereo unspecified), the TGI with HL-60(TB) leukemia is > 10 µM; with OVCAR-3 ovarian, > 100 µM; with A549 NSCLC, > 100 µM; with NCI-H23 lung, > 100 µM; in the test with UACC-257 melanoma, > 100 µM; in the test on 786-0 renal, > 100 µM. Further, the TGI in the test on SR leukemia is > 100 µM; in the test on OVCAR-4 ovarian, > 100 µM; in the test on SK-OV-3 ovarian it was > 100 µM; in the test on A498 renal, > 100 µM; in the test on UO-31 renal it was 97.9 µM; in the test with MCF7 breast, > 100 µM. Also, in the test on K-562 leukemia, the TGI was > 100 µM.

As for `C=C1CC(c2ccc(OCCCN3C(=O)c4ccccc4C3=O)cc2)OC1=O` (stereo unspecified), the TGI in the test with HL-60(TB) leukemia is 5.22 µM; in the test on OVCAR-3 ovarian, 5.31 µM; in the test on A549 NSCLC, 39.2 µM; with NCI-H23 lung, 9.34 µM; in the test on UACC-257 melanoma it was 7.55 µM; in the test with 786-0 renal, 5.23 µM. In addition, the TGI in the test on SR leukemia amounted to 8.57 µM; in the test with SK-OV-3 ovarian, 27.5 µM; in the test with NCI-H226 lung, 11.4 µM; with A498 renal it was 3.56 µM; in the test with UO-31 renal, 7.81 µM; with MCF7 breast, 6.46 µM. In the test with K-562 leukemia, this compound showed a TGI of 3.16 µM.

Take `COc1ccc(OC)c(N(CN2C(=O)CCC2C(=O)O)C(C)=O)c1` (stereo unspecified): the TGI with HL-60(TB) leukemia, in the test with OVCAR-3 ovarian, with A549 NSCLC, in the test with NCI-H23 lung, in the test on UACC-257 melanoma and with 786-0 renal was > 100 µM throughout. Moreover, the TGI in the test with SR leukemia, in the test on OVCAR-4 ovarian, with SK-OV-3 ovarian, in the test on NCI-H226 lung, in the test with A498 renal and in the test on UO-31 renal was > 100 µM in each case. For the same compound, the TGI in the test with MCF7 breast and in the test on K-562 leukemia was > 100 µM in each case.

As to `C/C=C/C#CC#C/C=C/C=C/C(O)CCO` (stereo unspecified), the TGI with HL-60(TB) leukemia, in the test with OVCAR-3 ovarian, in the test with A549 NSCLC, with NCI-H23 lung, in the test on UACC-257 melanoma and in the test with 786-0 renal was > 23.1 µM each time. The TGI in the test with SR leukemia, in the test with OVCAR-4 ovarian, in the test with SK-OV-3 ovarian, with NCI-H226 lung, in the test on UO-31 renal and with K-562 leukemia was > 23.1 µM throughout.

`Nc1c([N+](=O)[O-])nc(Cl)c2nncn12`: the TGI in the test with HL-60(TB) leukemia, in the test with OVCAR-3 ovarian, in the test on A549 NSCLC, in the test on NCI-H23 lung, in the test with UACC-257 melanoma and in the test on 786-0 renal was > 100 µM throughout. Besides, the TGI is 41.9 µM in the test on SR leukemia; > 100 µM in the test with OVCAR-4 ovarian; > 100 µM in the test on SK-OV-3 ovarian; > 100 µM in the test on NCI-H226 lung; > 100 µM with A498 renal; > 100 µM with UO-31 renal. The TGI in the test on K-562 leukemia is > 100 µM.

Regarding `CC1=NN(c2nc(N)nc(/C(C#N)=C\c3csc([N+](=O)[O-])c3)n2)C(C)(C)C1`, the TGI with HL-60(TB) leukemia was > 100 µM; with OVCAR-3 ovarian, 78.9 µM; with NCI-H23 lung it was 97.5 µM; in the test with UACC-257 melanoma, > 100 µM; with 786-0 renal it was 32.2 µM; in the test on SR leukemia, > 100 µM. Also, the TGI in the test with OVCAR-4 ovarian is 56.4 µM; in the test on SK-OV-3 ovarian, > 100 µM; with NCI-H226 lung, 76 µM; in the test with A498 renal it was > 100 µM; in the test with UO-31 renal it was > 100 µM; with MCF7 breast, > 100 µM. Further, the TGI with K-562 leukemia is > 100 µM.

As for `O=[N+]([O-])/C(C(Cl)=C(Cl)Cl)=C(/Cl)SCc1ccccc1`, the TGI in the test with HL-60(TB) leukemia amounted to 0.437 µM; in the test with OVCAR-3 ovarian, 12.1 µM; in the test on A549 NSCLC it was 32.7 µM; with NCI-H23 lung, 23 µM; with UACC-257 melanoma, 7.03 µM; with 786-0 renal it was 3.09 µM. The TGI came out at 18.6 µM in the test on OVCAR-4 ovarian; 35.6 µM with SK-OV-3 ovarian; 56.7 µM in the test with NCI-H226 lung; 40.8 µM in the test on A498 renal; 4.83 µM in the test on UO-31 renal; 16 µM in the test with MCF7 breast. In the test with K-562 leukemia, the TGI stood at 3.36 µM.

Regarding `CN(C)C(=NCc1ccccc1)NC#N`, the TGI with OVCAR-3 ovarian, with A549 NSCLC, with NCI-H23 lung, in the test with UACC-257 melanoma, in the test on 786-0 renal and in the test with OVCAR-4 ovarian was > 100 µM in each case. Further, the TGI with SK-OV-3 ovarian and in the test with UO-31 renal was > 100 µM in each case.

Consider `[N-]=[N+]=NI1OC(=O)c2ccccc21`, for which the TGI is 84 µM with HL-60(TB) leukemia; > 100 µM in the test with OVCAR-3 ovarian; > 100 µM in the test with A549 NSCLC; > 100 µM in the test with NCI-H23 lung; > 100 µM in the test on UACC-257 melanoma; > 100 µM with 786-0 renal. Further, the TGI in the test on SR leukemia, with OVCAR-4 ovarian, with SK-OV-3 ovarian, in the test on NCI-H226 lung, in the test on A498 renal and with UO-31 renal was > 100 µM each time. In addition, the TGI in the test with MCF7 breast and in the test on K-562 leukemia was > 100 µM in each case.

Take `C/C(=C\CBr)CCC(Br)C(C)(C)Cl` (stereo unspecified): the TGI in the test with A549 NSCLC, in the test with NCI-H23 lung, in the test on UACC-257 melanoma, in the test on 786-0 renal, in the test with SR leukemia and with OVCAR-4 ovarian was > 100 µM in each case. In addition, the TGI in the test with SK-OV-3 ovarian, with NCI-H226 lung, in the test with UO-31 renal and in the test with K-562 leukemia was > 100 µM throughout.

Take `NC(=O)C(=CNC(=S)Nc1ccccc1)C(N)=O`: the TGI with HL-60(TB) leukemia, in the test with OVCAR-3 ovarian, with A549 NSCLC, in the test with NCI-H23 lung, in the test on UACC-257 melanoma and with 786-0 renal was > 100 µM throughout. In addition, the TGI in the test with SR leukemia, with OVCAR-4 ovarian, in the test with SK-OV-3 ovarian, with NCI-H226 lung, with A498 renal and with MCF7 breast was > 100 µM each time. Besides, the TGI in the test on K-562 leukemia is > 100 µM.
